This passage reports IC50 results from article PMC3058180 (Journal of pharmaceutical sciences, 2010).

One experiment has as its system A/Wuhan/359/95 (H3N2). Put plainly: microbe, parasite or virus in culture. In kind it is cell-based. The following applies: Influenza A virus, H3N2, MDCK, read-out: IC50 (nM of Zanamivir).
The subject of experiment [1] is A/turkey/MN/833/80 (H4N2). Put plainly: microbe, parasite or virus in culture. The following applies: Influenza A virus, H4N2, MDCK, read-out: IC50 (nM of Zanamivir). In kind it is cell-based.

`CC(=O)N[C@H]1[C@H]([C@H](O)[C@H](O)CO)OC(C(=O)O)=C[C@@H]1N=C(N)N` [compound 1, Zanamivir]: the IC50 (usually the concentration needed to halve the response being measured) was 23000 nM with A/Wuhan/359/95 (H3N2) and 21000 nM in experiment [1].
